# Reference: ChEMBL document CHEMBL3763039, “Development and Characterization of Potent Cyclic Acyldepsipeptide Analogues with Increased Antimicrobial Activity” (2016)
# Where a SMILES comes first, the peptide text is derived from it. Bridges are numbered along the chain shown (N, C = ends). [ ]: non-standard residue; d: D form. The star is where a group is joined. Phe(F5) = N[C@@H](Cc1c(F)c(F)c(F)c(F)c1F)C(=O)O; Phe(3,5-F2) = N[C@@H](Cc1cc(F)cc(F)c1)C(=O)O; Pip(4S-Me) = C[C@H]1CCN[C@H](C(=O)O)C1; Pro(4R-Me) = C[C@H]1CN[C@H](C(=O)O)C1; Tiq1c(1S) = O=C(O)[C@H]1NCCc2ccccc21; Heptenoyl(2E) = CCCC/C=C/C(=O)*; aThr = C[C@H](O)[C@H](N)C(=O)O; Pip = O=C(O)[C@@H]1CCCCN1; NMeA = CN[C@@H](C)C(=O)O; X1 = CCC/C=C/C=C/C(=O)*; Abu = CC[C@H](N)C(=O)O; Dap = NC[C@H](N)C(=O)O
# Tests used:
# Assay type in all cases: functional
# Enterococcus faecalis = assay: Antibacterial activity against vancomycin-resistant Enterococcus faecalis V583 incubated for 16 to 18 hrs by broth microdilution method
# Listeria innocua = assay: Antibacterial activity against Listeria innocua incubated for 16 to 18 hrs by broth microdilution method
# Escherichia coli [1] = assay: Antibacterial activity against Escherichia coli MC4100 expressing lptD-4213 incubated for 16 to 18 hrs by broth microdilution method
# Staphylococcus aureus [2] = assay: Antibacterial activity against Staphylococcus aureus ATCC 29213 incubated for 16 to 18 hrs by broth microdilution method
# Escherichia coli [3] = assay: Antibacterial activity against Escherichia coli MC4100 incubated for 16 to 18 hrs by broth microdilution method
# Neisseria meningitidis [4] = assay: Antibacterial activity against clpP deficient Neisseria meningitidis H44/76 incubated for 16 to 18 hrs by broth microdilution method
# Neisseria meningitidis [5] = assay: Antibacterial activity against Neisseria meningitidis H44/76 incubated for 16 to 18 hrs by broth microdilution method
# Staphylococcus aureus [6] = assay: Antibacterial activity against methicillin-resistant Staphylococcus aureus 1784A incubated for 16 to 18 hrs by broth microdilution method
# Pseudomonas aeruginosa = assay: Antibacterial activity against Pseudomonas aeruginosa PAO1 incubated for 16 to 18 hrs by broth microdilution method
# Streptococcus pneumoniae = assay: Antibacterial activity against Streptococcus pneumoniae D39 incubated for 16 to 18 hrs by broth microdilution method
# Bacillus subtilis = assay: Antibacterial activity against Bacillus subtilis PY79 incubated for 16 to 18 hrs by broth microdilution method
# Staphylococcus aureus [7] = assay: Antibacterial activity against Staphylococcus aureus subsp. aureus Newman clinical isolate incubated for 16 to 18 hrs by broth microdilution method
# Neisseria gonorrhoeae = assay: Antibacterial activity against chloramphenicol-resistant Neisseria gonorrhoeae N.279 incubated for 16 to 18 hrs by broth microdilution method
SMILES,MIC (Enterococcus faecalis) [µg/mL],MIC (Listeria innocua) [µg/mL],MIC (Escherichia coli [1]) [µg/mL],MIC (Staphylococcus aureus [2]) [µg/mL],MIC (Escherichia coli [3]) [µg/mL],MIC (Neisseria meningitidis [4]) [µg/mL],MIC (Neisseria meningitidis [5]) [µg/mL],MIC (Staphylococcus aureus [6]) [µg/mL],MIC (Pseudomonas aeruginosa) [µg/mL],MIC (Streptococcus pneumoniae) [µg/mL],MIC (Bacillus subtilis) [µg/mL],MIC (Staphylococcus aureus [7]) [µg/mL],MIC (Neisseria gonorrhoeae) [µg/mL]
CCCC/C=C/C(=O)N[C@@H](Cc1cc(F)cc(F)c1)C(=O)N[C@@H]1C(=O)N2CCC[C@H]2C(=O)N2CCCC[C@H]2C(=O)N[C@@H](C)C(=O)N2C[C@H](C)C[C@H]2C(=O)O[C@H]1C,0.0078,≤ 0.0625,> 128,0.0039,> 128,> 128,0.0625,0.125,> 128,≤ 0.0625,≤ 0.0625,0.0625,0.0625
C[C@@H]1C[C@H]2C(=O)O[C@@H](C)[C@H](NC(=O)[C@H](Cc3cc(F)cc(F)c3)NC(=O)/C=C/CC3CCCCC3)C(=O)N3CCC[C@H]3C(=O)N3CCCC[C@H]3C(=O)N[C@@H](C)C(=O)N2C1,0.0078,≤ 0.0625,> 128,0.0078,> 128,> 128,0.0625,0.125,> 128,0.0625,≤ 0.0625,0.0625,0.125
CCCC/C=C/C(=O)N[C@@H](Cc1cc(F)cc(F)c1)C(=O)N[C@@H]1C(=O)N2CCC[C@H]2C(=O)N2CC[C@H](C)C[C@H]2C(=O)N[C@@H](C)C(=O)N2C[C@H](C)C[C@H]2C(=O)O[C@H]1C,0.0156,≤ 0.0625,> 128,0.0078,> 128,> 128,0.0625,8,> 128,≤ 0.0625,≤ 0.0625,0.25,0.125
CCC/C=C/C=C/C(=O)N[C@@H](Cc1ccccc1)C(=O)N[C@H]1COC(=O)[C@@H]2C[C@@H](C)CN2C(=O)[C@H](C)NC(=O)[C@H](C)N(C)C(=O)[C@@H]2CCCN2C1=O (X1-FSP[NMeA]A[Pro(4R-Me)]; ester 2-C),0.125,≤ 0.0625,> 128,0.5,> 128,> 128,0.0313,0.5,> 128,≤ 0.0625,0.125,0.25,0.0156
"CCC/C=C/C=C/C(=O)N[C@@H](Cc1cc(F)cc(F)c1)C(=O)N[C@@H]1C(=O)N2CCC[C@H]2C(=O)N2CCCC[C@H]2C(=O)N[C@@H](C)C(=O)N2C[C@H](C)C[C@H]2C(=O)O[C@H]1C (X1-[Phe(3,5-F2)][aThr]P[Pip]A[Pro(4R-Me)]; ester 2-C)",0.0039,≤ 0.0625,4,0.0019,> 128,> 128,0.0313,0.125,> 128,≤ 0.0625,≤ 0.0625,0.0625,0.0078
"CCCC/C=C/C(=O)N[C@@H](Cc1cc(F)cc(F)c1)C(=O)N[C@H]1COC(=O)[C@@H]2C[C@@H](C)CN2C(=O)[C@H](CC)NC(=O)[C@@H]2CCCN2C(=O)[C@@H]2CCCN2C1=O ({Heptenoyl(2E)}-[Phe(3,5-F2)]SPP[Abu][Pro(4R-Me)]; ester 2-C)",0.25,≤ 0.0625,> 128,2,> 128,–,4,2,> 128,0.5,0.125,2,4
"CCCC/C=C/C(=O)N[C@@H](Cc1cc(F)cc(F)c1)C(=O)N[C@H]1COC(=O)[C@@H]2C[C@@H](C)CN2C(=O)[C@H](C)NC(=O)[C@@H]2C[C@@H](C)CCN2C(=O)[C@@H]2CCCN2C1=O ({Heptenoyl(2E)}-[Phe(3,5-F2)]SP[Pip(4S-Me)]A[Pro(4R-Me)]; ester 2-C)",0.0156,≤ 0.0625,> 128,0.0156,> 128,–,0.125,4,> 128,≤ 0.0625,≤ 0.0625,0.5,0.0625
"CCCC/C=C/C(=O)N[C@@H](Cc1cc(F)cc(F)c1)C(=O)N[C@H]1COC(=O)[C@@H]2C[C@@H](C)CN2C(=O)[C@H](CC)NC(=O)[C@@H]2c3ccccc3CCN2C(=O)[C@@H]2CCCN2C1=O ({Heptenoyl(2E)}-[Phe(3,5-F2)]SP[Tiq1c(1S)][Abu][Pro(4R-Me)]; ester 2-C)",0.25,0.125,> 128,4,> 128,–,8,4,> 128,0.5,2,8,8
"CCCC/C=C/C(=O)N[C@@H](Cc1cc(F)cc(F)c1)C(=O)N[C@H]1CNC(=O)[C@@H]2C[C@@H](C)CN2C(=O)[C@H](C)NC(=O)[C@@H]2CCCCN2C(=O)[C@@H]2CCCN2C1=O ({Heptenoyl(2E)}-[Phe(3,5-F2)][Dap]P[Pip]A[Pro(4R-Me)]; lactam 2-C)",0.5,≤ 0.0625,> 128,4,> 128,–,1,16,> 128,2,4,16,1
"CCCC/C=C/C(=O)N[C@@H](Cc1cc(F)cc(F)c1)C(=O)N[C@@H]1C(=O)N2CCC[C@H]2C(=O)N2CC[C@H](C)C[C@H]2C(=O)N[C@@H](C)C(=O)N2CCC[C@H]2C(=O)O[C@H]1C ({Heptenoyl(2E)}-[Phe(3,5-F2)][aThr]P[Pip(4S-Me)]AP; ester 2-C)",0.0156,≤ 0.0625,> 128,0.0078,> 128,–,0.125,1,> 128,≤ 0.0625,≤ 0.0625,0.5,0.125
CCCC/C=C/C(=O)N[C@@H](Cc1c(F)c(F)c(F)c(F)c1F)C(=O)N[C@H]1COC(=O)[C@@H]2C[C@@H](C)CN2C(=O)[C@H](CC)NC(=O)[C@@H]2CCCCN2C(=O)[C@@H]2CCCN2C1=O ({Heptenoyl(2E)}-[Phe(F5)]SP[Pip][Abu][Pro(4R-Me)]; ester 2-C),16,4,> 128,> 128,> 128,–,32,> 128,> 128,> 128,128,> 128,32
O=C(N[C@H](CO)[C@H](O)c1ccc([N+](=O)[O-])cc1)C(Cl)Cl [CHLORAMPHENICOL],–,–,2,–,3.1,1,0.5,–,8,–,–,–,64
